≈ marks a conversion by molar mass, not a printed value.
Tests used:
[1] = Mouse pharmacokinetic study; format: in vivo; conditions: single oral dose (dose level not given), plasma
Method: To prepare 1 L of the vehicle solution (0.5% CMC and 1.0% Tween 80), 10 g of Tween 80 was mixed with 985 mL of water into a 1 L bottle. The mixture was stirred until Tween 80 was completely dissolved. With continued stirring, 5 g of CMC was very slowly sprinkled into the solution. Stirring was continued until all CMC was dissolved, which might take several hr. The resulting vehicle solution was stored at 4° C.
The compound was suspended in the vehicle solution and the mice were orally administrated with a single dose of the compound at the selected dose level. The blood samples were collected according to the defined time table into tubes containing K2-EDTA, followed by gentle mixing to assure distribution of the anti-coagulant. Immediately after the blood sample was collected and mixed, it was placed on ice. The samples were then centrifuged at 4° C. for 10 minutes at 5,000 RPM. The plasma was harvested into pre-labeled tubes and stored at −80° C. until analyzed by LC-MS/MS.

KM12 (TPM3-TRKA) = KM12 (TPM3-TRKA) (Homo sapiens, UniProt P04629); experiment: Cell proliferation assay (CellTiter-Glo)
Sequence of KM12 (TPM3-TRKA) (P04629 with tags, fused parts or gaps): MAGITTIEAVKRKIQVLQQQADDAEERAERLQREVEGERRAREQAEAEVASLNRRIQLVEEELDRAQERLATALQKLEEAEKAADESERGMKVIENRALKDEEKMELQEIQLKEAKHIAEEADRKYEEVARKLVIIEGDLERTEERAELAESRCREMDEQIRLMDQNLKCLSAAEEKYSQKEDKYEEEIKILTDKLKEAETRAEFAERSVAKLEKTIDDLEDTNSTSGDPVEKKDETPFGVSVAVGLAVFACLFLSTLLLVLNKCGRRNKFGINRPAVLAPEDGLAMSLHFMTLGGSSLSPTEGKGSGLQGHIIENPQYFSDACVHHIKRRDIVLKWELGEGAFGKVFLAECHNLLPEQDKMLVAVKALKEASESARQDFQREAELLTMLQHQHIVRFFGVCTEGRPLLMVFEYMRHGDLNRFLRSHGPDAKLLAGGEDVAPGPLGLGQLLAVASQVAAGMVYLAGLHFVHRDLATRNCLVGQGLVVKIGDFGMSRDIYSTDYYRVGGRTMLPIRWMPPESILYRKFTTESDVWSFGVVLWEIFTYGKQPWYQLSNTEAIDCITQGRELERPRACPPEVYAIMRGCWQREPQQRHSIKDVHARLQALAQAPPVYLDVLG

KG-1 cell (OP2-FGFR1) = KG-1 cell (OP2-FGFR1) (Homo sapiens, UniProt P11362); experiment: Cell proliferation assay (CellTiter-Glo)
Sequence of KG-1 cell (OP2-FGFR1) (P11362 456-822 limits assumed): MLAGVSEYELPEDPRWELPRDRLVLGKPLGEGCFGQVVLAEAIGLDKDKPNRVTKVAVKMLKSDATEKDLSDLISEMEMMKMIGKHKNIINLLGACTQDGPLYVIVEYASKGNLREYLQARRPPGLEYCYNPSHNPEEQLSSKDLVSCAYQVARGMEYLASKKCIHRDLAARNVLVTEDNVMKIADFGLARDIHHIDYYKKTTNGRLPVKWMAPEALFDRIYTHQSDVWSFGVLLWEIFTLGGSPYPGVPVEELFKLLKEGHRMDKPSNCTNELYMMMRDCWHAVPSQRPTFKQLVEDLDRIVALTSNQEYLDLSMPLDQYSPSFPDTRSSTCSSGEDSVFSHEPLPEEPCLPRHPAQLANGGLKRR

[2] = Solubility test in phosphate buffer; format: physicochemical; conditions: aqueous buffer, thermodynamic from solid; phosphate buffer pH 7.4, room temperature
Method: Aliquot of 1.035 mL phosphate buffer (PB) (pH 7.4) was added into 2.07 mg of the test compound (for a 2 mg·mL^−1 upper limiting solubility determination) in a 1.5 mL tubes. The mixture was ultrasonicly treated for 10 min and rotated on rotator at room temperature for more than 8 hr. After rotation, the tube was ultrasonicly treated for 10 min and centrifuged at 13000 rpm for 15 min. 0.3 mL of the supernatant was transferred into a 0.6 mL tube and discarded after rotated for 5 min for rinsing, then about 0.6 mL of the residual supernatant was transferred into the rinsed tube and centrifuged again at 13000 rpm for 15 min. The supernatant after every centrifugation was appropriately diluted and transferred for LC-MS/MS analysis where a standard curve was constructed with 7 concentration levels (2, 4, 10, 20, 40, 100 and 200 μg mL^−1) and used for the quantitation of the analyte in PB.

[3] = Liver microsomal stability; format: in vitro ADME; conditions: pH 7.4, 1 μM compound, 0.5 mg/mL liver microsome protein
Method: The test compound stock solution was prepared by weighing 1.07 mg and dissolving in 0.261 mL of DMSO to achieve the concentration of 10 mM. Working solution of the test compound was prepared by diluting stock solution using DMSO to yield the concentration of 300 μM.
The assay was carried out in 96-well microtiter plates. In each well, the reaction mixture (25 μL) contained the test compound at the final concentration of 1 μM, 0.5 mg/mL liver microsome protein, and 1 mM NADPH in 100 mM potassium phosphate, pH 7.4 buffer with 3.3 mM MgCl2. The mixtures were incubated in duplicate at 37° C. for 0, 15, 30 or 60 minutes, and 150 μL of quench solution (acetonitrile with 0.1% formic acid) with internal standard (bucetin for positive ESI mode) was added into each well of reaction to terminate the reaction. The plates were then sealed and centrifuged at 4° C. for 15 minutes at 4000 rpm. The resulting supernatant was transferred to fresh plates for LC-MS/MS analysis of the test compounds. Verapamil was used as the positive control to validate the assay system.
All samples were analyzed with LC-MS/MS using an AB Sciex API 4000 instrument, coupled to a Shimadzu LC-20AD LC Pump system. Analytical samples were separated using a Waters Atlantis T3 dC18 reverse phase HPLC column (20 mm×2.1 mm) at a flow rate of 0.5 mL/min. The mobile phase consisted of 0.1% formic acid in water (solvent A) and 0.1% formic acid in acetonitrile (solvent B).
The extent of metabolism was calculated based on the disappearance of the test compound, compared to its initial concentration. The initial rates of clearance of test compounds were calculated using linear regression plot of semi-log % remaining of compounds versus time. The elimination rate constant (equals to negative slope) of the linear regression plot was then used to determine t112 and the intrinsic clearance (CLInt) using the following formula: k=−slope t1/2=0.693/k CLint=k/Cprotein
Where Cprotein (mg/mL) is the microsomal protein concentration in the incubation system.

[4] = female, mouse, liver microsomes

Compound | AUC [1] [ng·h/mL] | Cmax [1] [ng/mL] | Tmax [1] [min] | IC50 (KM12 (TPM3-TRKA)) [nM] | IC50 (KG-1 cell (OP2-FGFR1)) [nM] | solubility [2] [µg/mL] | microsomal CLint at 1 µM [3, 4] [µL/min/mg] | microsomal CLint at 1 µM ([3]; female, rat, liver microsomes) [µL/min/mg] | microsomal CLint at 1 µM ([3]; human, pooled liver microsomes) [µL/min/mg]
C[C@@H]1COc2ncc(F)cc2CN2c3nc4c(cnn4cc3OC[C@H]2C)C(=O)N1 [Comp. Ex. 1, reference compound] | 12300 | 4190 | 30 | < 0.2 | 22.2 | 7.9 (≈ 19.8 µM) | 22 | 10 | 2.6
C[C@@H]1COc2cn3ncc4c3nc2N1Cc1cc(F)cnc1OCC(C)(C)NC4=O [Comp. Ex. 2, reference compound] | 18700 | 2900 | 30 | 0.2 | 0.65 | 4.9 (≈ 11.9 µM) | 21 | 5.9 | 3.9
O=C1NCCCOc2ccc(F)cc2CN2c3nc4c1cnn4cc3OC[C@H]2C(F)F [Compound 3, (16S)-16-(Difluoromethyl)-12-fluoro-5,6,7,8,16,17-hexahydro-4H,14H-1,19-(metheno)[1,4]oxazino[3,4-j]pyrazolo[4,3-g][1,5,9,11]benzoxatriazacyclotetradecin-4-one] |  |  |  | < 0.2 | 75.3 |  |  |  | 
O=C1NC2(CC2)COc2ccc(F)cc2CN2c3nc4c1cnn4cc3OC[C@H]2C(F)F [Compound 4, (4′S)-4′-(Difluoromethyl)-8′-fluoro-3′H,4′H,6′H,12′H,14′H,15′H-spiro[cyclopropane-1,13′-[18,1](metheno)[1,4]oxazino[3,4-i]pyrazolo[4,3-f][1,4,8,10]benzoxatriazacyclotridecin]-15′-one] |  |  |  |  | 60.9 |  |  |  | 
C[C@@H]1CCOc2ccc(F)cc2CN2c3nc4c(cnn4cc3OC[C@H]2C(F)F)C(=O)N1 [Compound 5, (6R,16S)-16-(Difluoromethyl)-12-fluoro-6-methyl-5,6,7,8,16,17-hexahydro-4H,14H-1,19-(metheno)[1,4]oxazino[3,4-j]pyrazolo[4,3-g][1,5,9,11]benzoxatriazacyclotetradecin-4-one] |  |  |  | < 0.2 | 514 |  |  |  | 
O=C1NC2(CCOc3ccc(F)cc3CN3c4nc5c1cnn5cc4OC[C@H]3C(F)F)CC2 [Compound 6, (16′S)-16′-(Difluoromethyl)-12′-fluoro-4′H,5′H,7′H,8′H,14′H,16′H,17′H-spiro[cyclopropane-1,6′-[1,19](metheno)[1,4]oxazino[3,4-j]pyrazolo[4,3-g][1,5,9,11]benzoxatriazacyclotetradecin]-4′-one] |  |  |  | < 0.2 | 385 |  |  |  | 
CC1(C)CNC(=O)c2cnn3cc4c(nc23)N(Cc2cc(F)ccc2OC1)[C@H](C(F)F)CO4 [Compound 7, (16S)-16-(Difluoromethyl)-12-fluoro-7,7-dimethyl-5,6,7,8,16,17-hexahydro-4H,14H-1,19-(metheno)[1,4]oxazino[3,4-j]pyrazolo[4,3-g][1,5,9,11]benzoxatriazacyclotetradecin-4-one] |  |  |  | < 0.2 | 40.7 |  |  |  | 
CC1(C)CCOc2ccc(F)cc2CN2c3nc4c(cnn4cc3OC[C@H]2C(F)F)C(=O)N1 [Compound 8, (16S)-16-(Difluoromethyl)-12-fluoro-6,6-dimethyl-5,6,7,8,16,17-hexahydro-4H,14H-1,19-(metheno)[1,4]oxazino[3,4-j]pyrazolo[4,3-g][1,5,9,11]benzoxatriazacyclotetradecin-4-one] |  |  |  | < 0.2 | 2100 |  |  |  | 

Source: patent publication US11142533B2, “Macrocycles for use in treating disease” (TURNING POINT THERAPEUTICS, INC., priority 2019, dated 2021)
